# Test results: article PMC10820264, “Combining Experimental and Computational Methods to Produce Conjugates of Anticholinesterase and Antioxidant Pharmacophores with Linker Chemistries Affecting Biological Activities Related to Treatment of Alzheimer’s Disease” (Molecules, 2024)
# Where two headings read alike, the source gives them in different places. Marks after values point to notes of the source that are not given here.
# Tests used:
# [1] = ABTS radical cation scavenging assay; details: for ABTS•+-Scavenging Activity TEAC: Trolox equivalents
# [2] = biological target: T1, Human erythrocyte AChE (Homo sapiens, UniProt P22303); parameters: method as in PMID 33322783; details: cited from earlier work
# T1 sequence (P22303 other isoform, or with tags, fused parts or gaps): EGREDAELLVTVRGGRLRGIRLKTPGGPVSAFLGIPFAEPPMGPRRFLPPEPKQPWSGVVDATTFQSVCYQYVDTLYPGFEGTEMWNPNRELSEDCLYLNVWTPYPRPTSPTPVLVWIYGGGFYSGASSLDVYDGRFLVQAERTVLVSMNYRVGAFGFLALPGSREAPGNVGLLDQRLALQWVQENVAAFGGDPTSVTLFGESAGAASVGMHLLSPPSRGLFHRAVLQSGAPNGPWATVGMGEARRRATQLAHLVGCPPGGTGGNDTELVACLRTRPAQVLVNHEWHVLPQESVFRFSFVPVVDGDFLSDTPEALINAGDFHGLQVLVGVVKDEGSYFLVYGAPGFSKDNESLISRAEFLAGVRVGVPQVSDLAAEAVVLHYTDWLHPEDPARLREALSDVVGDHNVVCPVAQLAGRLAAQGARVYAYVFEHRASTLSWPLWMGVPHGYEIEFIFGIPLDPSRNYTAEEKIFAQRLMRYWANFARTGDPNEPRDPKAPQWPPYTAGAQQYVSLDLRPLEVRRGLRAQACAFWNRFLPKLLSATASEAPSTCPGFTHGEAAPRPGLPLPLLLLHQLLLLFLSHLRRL
# [3] = biological target: T2, equine serum BChE (Equus caballus, UniProt P81908); parameters: method as in PMID 33322783; details: cited from earlier work
# T2 sequence (P81908 whole entry): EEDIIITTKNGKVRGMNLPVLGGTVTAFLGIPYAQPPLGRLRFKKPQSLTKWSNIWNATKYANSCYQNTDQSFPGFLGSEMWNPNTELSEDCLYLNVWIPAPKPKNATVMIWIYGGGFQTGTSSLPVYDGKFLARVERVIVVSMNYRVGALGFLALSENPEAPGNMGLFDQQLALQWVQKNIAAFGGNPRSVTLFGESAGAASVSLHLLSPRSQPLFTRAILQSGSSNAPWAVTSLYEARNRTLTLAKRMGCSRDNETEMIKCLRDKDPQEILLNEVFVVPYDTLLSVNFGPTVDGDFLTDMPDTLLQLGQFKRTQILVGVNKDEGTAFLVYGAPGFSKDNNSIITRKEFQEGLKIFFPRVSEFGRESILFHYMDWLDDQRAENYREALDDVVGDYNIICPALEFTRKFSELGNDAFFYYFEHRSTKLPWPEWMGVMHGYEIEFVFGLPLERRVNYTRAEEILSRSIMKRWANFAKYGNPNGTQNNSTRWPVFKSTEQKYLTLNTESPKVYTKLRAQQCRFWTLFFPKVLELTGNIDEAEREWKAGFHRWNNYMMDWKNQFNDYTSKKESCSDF
# [4] = tested on: Porcine liver CES; parameters: method as in PMID 33322783; details: cited from earlier work
# [5] = biological target: T3, peripheral anionic site of Electrophorus electricus AChE (EeAChE) (Electrophorus electricus, UniProt O42275); parameters: method as in PMID 33322783; details: compound 20 μM; cited from earlier work
# T3 sequence (O42275 24-633): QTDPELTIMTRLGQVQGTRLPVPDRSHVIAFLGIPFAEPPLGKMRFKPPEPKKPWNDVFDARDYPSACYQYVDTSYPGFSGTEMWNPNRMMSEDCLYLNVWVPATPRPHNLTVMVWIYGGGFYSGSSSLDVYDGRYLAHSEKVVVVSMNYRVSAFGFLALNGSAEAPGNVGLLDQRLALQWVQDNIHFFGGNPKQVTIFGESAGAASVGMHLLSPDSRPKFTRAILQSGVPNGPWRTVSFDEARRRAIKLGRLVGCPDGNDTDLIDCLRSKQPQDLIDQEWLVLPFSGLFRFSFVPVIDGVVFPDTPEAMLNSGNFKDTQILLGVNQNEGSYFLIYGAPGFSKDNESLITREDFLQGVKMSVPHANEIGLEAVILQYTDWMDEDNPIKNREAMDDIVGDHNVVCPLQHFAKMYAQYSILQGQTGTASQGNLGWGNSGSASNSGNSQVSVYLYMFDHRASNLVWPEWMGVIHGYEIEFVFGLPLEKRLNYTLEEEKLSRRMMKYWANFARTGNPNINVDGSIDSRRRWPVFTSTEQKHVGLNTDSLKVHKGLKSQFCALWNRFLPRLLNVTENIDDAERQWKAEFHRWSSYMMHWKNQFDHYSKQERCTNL
# [6] = parameters: method as in PMID 33322783; details: Trolox equivalents; cited from earlier work
# [7] = parameters: method as in PMID 33322783; details: Trolox equivalents; cited from earlier work; remark: listed apart in the source
# [8] = biological target: T1, Human erythrocyte AChE; assay: biochemical; assay type: biochemical
# Experimental: (§1) Human erythrocyte AChE and equine serum BChE were purchased from Milamed (Perm, Russia). Porcine liver CES, substrates, and reference compounds were from Sigma-Aldrich (St. Louis, MO, USA). The activity of enzymes was measured spectrophotometrically, as described in detail in [72] using ATCh iodide, BTCh iodide, and 4-NPA as substrates for AChE, BChE, and CES, respectively. Experimental conditions: K,Na—phosphate buffer (100 mM), 25 °C, pH 7.5 for AChE and BChE and pH 8.0 for CES assay. Measurements were carried out on a FLUOStar Optima microplate reader (BMG Labtech, Ortenberg, Germany).
# (§2) Test compounds were dissolved in DMSO; the final concentration of solvent in the incubation mixture was 2% (v/v).
# [9] = biological target: T2, equine serum BChE; assay: biochemical; assay type: biochemical
# Experimental: as §1, §2
# [10] = tested on: Porcine liver CES; assay: CES inhibition, spectrophotometric, 4-NPA substrate; assay type: biochemical
# Experimental: as §1
# Test compounds were dissolved in DMSO; the final concentration of solvent in the incubation mixture was 2% (v/v). […]
# [11] = biological target: T3, peripheral anionic site of Electrophorus electricus AChE (EeAChE); assay type: binding
# [12] = biological target: Aβ42 (Homo sapiens, UniProt P05067); assay: Inhibition of Aβ42 self-aggregation, thioflavin T fluorescence; assay type: biochemical; details: Aβ42 50 µM, compound 100 µM; read-out: Inhibition of Aβ42 Self-Aggregation
# Aβ42, sequence (P05067 672-713): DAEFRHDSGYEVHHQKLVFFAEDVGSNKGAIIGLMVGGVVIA
# [13] = Ferric-reducing antioxidant power (FRAP) assay; details: Trolox equivalents
# [14] = tested on: free radicals in mouse brain homogenate (TBHP-initiated); assay type: biochemical; details: read-out: Radical Scavenging Capacity, Luminol Chemiluminescence Assay IC50
# [15] = tested on: spontaneous lipid peroxidation in mouse brain homogenate; assay type: biochemical; details: read-out: Inhibition of Spontaneous Lipid Peroxidation in Mouse Brain Homogenate, TBARS Assay IC50
# [16] = biological target: T4, AChE (Homo sapiens, UniProt P22303); parameters: method as in PMID 33322783; details: cited from earlier work
# T4 sequence (P22303 other isoform, or with tags, fused parts or gaps): as the sequence (P22303 other isoform, or with tags, fused parts or gaps) above
# [17] = biological target: T5, eqBChE (Equus caballus, UniProt P81908); parameters: method as in PMID 33322783; details: cited from earlier work
# T5 sequence (P81908 whole entry): as the sequence (P81908 whole entry) above
# [18] = biological target: T4, AChE; assay: biochemical; assay type: biochemical; details: for Ki: read-out: AChE Ki (competitive inhibition constant)
# Experimental: (§3) A mechanism of AChE and BChE inhibition was assessed by a detailed analysis of enzyme kinetics with three increasing concentrations of inhibitor and six substrate concentrations, as described in detail in [72].
# [19] = biological target: T5, eqBChE; assay: biochemical; assay type: biochemical; details: for Ki: read-out: eqBChE Ki (competitive inhibition constant)
# Experimental: as §3
SMILES,IC50 [1] [nM],IC50 [2] [nM],IC50 [3] [nM],CES % inhibition at 20 μM [4],Propidium Displacement [5],ABTS•+-Scavenging Activity TEAC [6],Ferric-Reducing Antioxidant Power TE [7],IC50 [8] [nM],IC50 [9] [nM],CES % inhibition at 20 μM [10] [%],Propidium Displacement [11] [%],inhibition at 100 µM [12] [%],ABTS•+-Scavenging Activity TEAC [1],Ferric-Reducing Antioxidant Power TE [13],IC50 [14] [nM],IC50 [15] [nM],AChE αKi (non-competitive inhibition constant) [18] [nM],Ki [18] [nM],eqBChE αKi (non-competitive inhibition constant) [19] [nM],Ki [19] [nM],also measured
CC(C)(C)c1cc(/C=N/CCNc2c3c(nc4ccccc24)CCC3)cc(C(C)(C)C)c1O [13a],22300 ± 1500,4860 ± 10,1920 ± 110,"26.1 ± 0.7% ^a,***","18.1 ± 1.6 ^a,*^,§ %",0.92 ± 0.03 ^a,"0.51 ± 0.03 ^a,***",,,,,,,,,,,,,,
CC(C)(C)c1cc(/C=N/CCNc2c3c(nc4ccccc24)CCCC3)cc(C(C)(C)C)c1O [14a],17800 ± 1500,5980 ± 131,1610 ± 40,"28.6 ± 1.6% ^a,***","18.2 ± 1.6 ^a,*^,§ %",1.13 ± 0.05 ^a,"0.58 ± 0.03 ^a,***",,,,,,,,,,,,,,
"CC(C)(C)c1cc(C=NCCCCCCCCNc2c3c(nc4ccccc24)CCCC3)cc(C(C)(C)C)c1O [14d, 2,6-Di-tert-butyl-4-{[8-(1,2,3,4-tetrahydro-acridin-9-ylamino)-octylimino]-methyl}-phenol]",18200 ± 700,,,,,,,17.1 ± 1.6,9.39 ± 0.42,28.8 ± 2.0,14.8 ± 1.0,70.4 ± 5.6,1.06 ± 0.03,0.70 ± 0.03,1900 ± 100,20400 ± 2300,,,,,AChE potency relative to compound 14a (times more potent) ([8]; vs 14a): 350 times; AChE activity relative to tacrine (times more active) ([8]; vs tacrine): ~ 40 times
CC(C)(C)c1cc(/C=N/CCNc2c3c(nc4ccccc24)CCCCC3)cc(C(C)(C)C)c1O [15a],18800 ± 800,4030 ± 30,419 ± 40,"30.1 ± 2.5% ^a,***",16.3 ± 1.3 ^a %,1.11 ± 0.04 ^a,"0.52 ± 0.01 ^a,***",,,,,,,,,,,,,,"AChE αKi (non-competitive inhibition constant) [16]: 4300 ± 20 ^b,* nM; Ki ([16]; read-out: AChE Ki (competitive inhibition constant)): 1580 ± 100 nM; eqBChE αKi (non-competitive inhibition constant) [17]: 437 ± 10 ^b,*** nM; Ki ([17]; read-out: eqBChE Ki (competitive inhibition constant)): 164 ± 5 nM"
"CC(C)(C)c1cc(C=NCCCCCCNc2c3c(nc4ccccc24)CCCCC3)cc(C(C)(C)C)c1O [15c, 2,6-Di-tert-butyl-4-{[6-(7,8,9,10-tetrahydro-6H-cyclohepta[b]quinolin-11-ylamino)-hexylimino]-methyl}-phenol]",22300 ± 1100,,,,,,,151 ± 13,10.6 ± 0.2,25.4 ± 0.9,16.8 ± 1.2,43.4 ± 3.9,0.90 ± 0.03,0.52 ± 0.02,2300 ± 300,27600 ± 1700,108 ± 3,69.8 ± 5,9.34 ± 0.62,5.13 ± 0.1,
"CC(C)(C)c1cc(C=NCCCCCCCCNc2c3c(nc4ccccc24)CCCCC3)cc(C(C)(C)C)c1O [15d, 2,6-Di-tert-butyl-4-{[8-(7,8,9,10-tetrahydro-6H-cyclohepta[b]quinolin-11-ylamino)-octylimino]-methyl}-phenol]",19600 ± 800,,,,,,,26 ± 2.4,6.24 ± 0.54,25.5 ± 1.1,14.9 ± 1.2,63.5 ± 5,1.00 ± 0.03,0.73 ± 0.02,3000 ± 100,29100 ± 2400,31.4 ± 2.4,19.9 ± 0.8,5.68 ± 0.06,4.91 ± 0.42,BChE activity relative to tacrine (times more active) ([9]; vs tacrine): 5 times; type of AChE inhibition [18]: mixed type; type of BChE inhibition [19]: mixed type
